The subject of one series is LAPC4 cells. Nature of the series: Androgen-dependent cell-based assay (DHT, LAPC4). The settings on record: Homo sapiens. The method, then:
Androgen-Dependent Cell-based Assay. As described by Jones and Diamond (2008), LAPC4 cells were cultured in phenol red free RPMI 1640 media supplemented with antibiotics and 10% FBS. […] […] Mean-effect plots (log[compound] vs. log[fractional effect]) were generated to determine the IC50 values for each test compound or combinations of test compounds at constant ratios.

Series [1] relates to S. mansoni. Nature of the series: Antischistosomal screen in S. mansoni-infected mice. It counts as in vivo, Schistosoma mansoni. The settings on record: for ED50: Schistosoma mansoni; for Worm burden reduction (WBR): single oral dose Ro 13-3978 100 mg/kg, praziquantel 400 mg/kg. The text has this:
Antischistosomal Screen. […] As described by Lombardo et al. (2019), cercariae of S. mansoni were obtained from infected Biomphalaria glabrata. By way of example, NMRI mice were infected subcutaneously with approximately 100 S. mansoni cercariae. […] Untreated mice (n=8) served as controls. At 21 d post-treatment, animals were killed by the CO2 method and dissected. Worms were removed by picking, then sexed and counted.

Series [2] is described as follows: Kinetic solubility (nephelometry). The series is classed as physicochemical. The method, then:
Kinetic Solubility. Compounds in DMSO (10 mg/mL) were diluted into either pH 6.5 phosphate buffer or 0.01 M HCl (approx. pH 2.0) with the final DMSO concentration being 1%. Samples were then analysed via nephelometry to determine a solubility range (Bevan and Lloyd, 2000).

Series [3] in a line: Partition coefficient (Log D) by gradient HPLC. The series is classed as physicochemical. The source says: Partition Coefficient. Partition coefficient values (Log D) of the test compounds were estimated by correlation of their chromatographic retention properties against the characteristics of a series of standard compounds with known partition coefficient values using gradient HPLC (modification of a method reported by Lombardo et al., 2001).

Series [4] can be described thus: In vitro metabolic stability, human liver microsomes. It counts as in vitro ADME. The method, then: (§1) In Vitro Metabolic Stability. As described by Charman et al. (2020), metabolic stability assays were performed by incubating test compounds in liver microsomes at 37° C. and 0.4 mg/mL protein concentration. The metabolic reaction was initiated by the addition of an NADPH-regenerating system and quenched at various time points over a 60 min incubation period by the addition of acetonitrile containing diazepam as internal standard. Control samples (containing no NADPH) were included (and quenched at 2, 30 and 60 min) to monitor for potential degradation in the absence of cofactor.
For orientation: Liver microsomes are vesicles of endoplasmic reticulum, rich in cytochrome P450 enzymes.

Series [5] is described as follows: In vitro metabolic stability, mouse liver microsomes. The series is classed as in vitro ADME. The method, then:
as §1

Series [6] can be described thus: Mouse exposure / pharmacokinetic studies. The series is classed as in vivo, mice. The settings on record: male, Swiss outbred, mouse, in vivo.
Series [7] concerns S. mansoni. As to conditions: cited from earlier work.
Another series relates to androgen-receptor. Nature of the series: DHT-induced (KLK3, FKBP5) and DHT-repressed (ZFP36L1) transcripts in LAPC4 cells. As to conditions: Compound IE up to 10 μM. The series is classed as cell-based.
The mark [8] stands for this setting: pH 7.4, chromatographic estimate, read-out: gLogD7.4.
[9] abbreviates: DHT-induced, androgen-dependent LAPC4 prostate cancer cell line, read-out: LAPC4 IC50.
[10] abbreviates: adult stage, single oral dose, mouse model, read-out: S. mansoni ED50, adult.
Setting [11] is: juvenile stage, single oral dose, mouse model, read-out: S. mansoni ED50, juvenile.

Consider five compounds from patent publication US20250353819A1, “ARYL HYDANTOIN COMPOUNDS AND METHODS OF USE” (priority 2022, published 2025).

Each structure is given as a SMILES string. Read-outs that look alike come from different tables or passages of the source.

As for `CC1(C(F)(F)F)NC(=O)N(c2ccc(F)c(C(F)(F)F)c2)C1=O` (stereo not drawn) [IA, 3-(4-Fluoro-3-(trifluoromethyl)phenyl)-5-methyl-5-(trifluoromethyl)imidazolidine-2,4-dione], in the series on LAPC4 cells (LAPC4, read-out: LAPC4 IC50), the IC50 – broadly, the midpoint of a concentration-inhibition curve – is 5.2 µM. The ED50 (as a rule, the dose at which the effect has come halfway, by size or by number of responders) with S. mansoni [1] (po, read-out: S. mansoni ED50, adult) amounted to 14 mg/kg; in the series with S. mansoni [1] (po, read-out: S. mansoni ED50, juvenile) it was 70 mg/kg. For the same compound, the Sol2.0 in series [2] (kinetic solubility, 0.01 M HCl (approx. pH 2.0)) is recorded as 25-50/25-50 μg/mL. Further, the Sol6.5 in series [2] (kinetic solubility, pH 6.5 phosphate buffer) was 25-50/25-50 μg/mL. Also, in series [3] (setting [8]), the chromatographic logD was 3.5. In addition, the microsomal CLint in series [4] (human liver microsomes, read-out: h CLint) was below 7 µL/min/mg; in series [5] (mouse liver microsomes, read-out: m CLint), below 7 µL/min/mg. The AUC(0-t) in series [6] (100 mg/kg PO in mice, read-out: AUC0-last) is 966 µg·h/mL. For the same compound, the maximum concentration (Cmax) (commonly the maximum level reached in the sampled fluid or tissue) in series [6] (100 mg/kg PO in mice, read-out: Cmax) was determined as 28000 ng/mL.
Turning to `[2H]C([2H])([2H])C1(C([2H])([2H])[2H])NC(=O)N(c2ccc(F)c(C(F)(F)F)c2)C1=O` [IB, 3-(4-Fluoro-3-(trifluoromethyl)phenyl)-5,5-bis(methyl-d3)imidazolidine-2,4-dione], in the series on LAPC4 cells (setting [9]), the IC50 is 13 µM. Also, the ED50 in the series with S. mansoni [1] (setting [10]) stood at 7.3 mg/kg; in the series with S. mansoni [1] (setting [11]), 73 mg/kg. The Sol2.0 in series [2] (pH 2) was >100/>100 μg/mL. In series [2] (pH 6.5), the Sol6.5 was >100/>100 μg/mL. In [3] (setting [8]), the chromatographic logD was 2.7. In addition, the microsomal CLint was below 7 µL/min/mg in [4] (human, microsomes) and below 7 µL/min/mg in series [5] (mouse, microsomes). In series [6] (po, 100 mg/kg), this compound had an AUC(0-t) of 1820 µg·h/mL. The peak concentration (Cmax) in series [6] (po, 100 mg/kg) was 43000 ng/mL.
Regarding `CC1(C(F)F)NC(=O)N(c2ccc(F)c(C(F)(F)F)c2)C1=O` (stereo not drawn) [ID, 5-(Difluoromethyl)-3-(4-fluoro-3-(trifluoromethyl)phenyl)-5-methylimidazolidine-2,4-dione], the concentration for half-maximal inhibition (IC50) in the series on LAPC4 cells (setting [9]) came out at 4.2 µM. In addition, the ED50 worked out at 9 mg/kg in the series with S. mansoni [1] (setting [10]) and 88 mg/kg in the series on S. mansoni [1] (setting [11]). For the same compound, the Sol2.0 in series [2] (pH 2) was 50-100/50-100 μg/mL. Also, the Sol6.5 in [2] (pH 6.5) was 50-100/50-100 μg/mL. In [3] (pH 7.4), this compound displayed a chromatographic logD of 3.2. Also, the microsomal CLint is below 7 µL/min/mg in [4] (human, microsomes) and below 7 µL/min/mg in [5] (mouse, microsomes). The AUC(0-t) in series [6] (po, 100 mg/kg) was 1650 µg·h/mL. Moreover, in series [6] (po, 100 mg/kg), the concentration peaked (Cmax) at 42000 ng/mL.
On to `O=C(C1CCCCC1)N1CC(=O)N2CCc3ccccc3C2C1` (stereo not drawn) [Praziquantel, praziquantel, reference compound], for which the “Worm burden reduction (WBR)” value stood at 83% in the series on S. mansoni [1] (NOD-SCID (Prkdc^scid) mice); 83% in the series on S. mansoni [1] (NOD-SCID (Prkdc^scid) mice, listed as Praziquantel (PZQ)); 96% in the series with S. mansoni [1] (outbred NMRI mice). Further, in the series on S. mansoni [7] (schistosome mouse model, literature), the “activity against juvenile stages of the parasite” value is on record as “no significant activity”.
With `CC1(C)NC(=O)N(c2ccc([N+](=O)[O-])c(C(F)(F)F)c2)C1=O` [nilutamide, reference compound], the “levels of DHT-induced (KLK3, FKBP5) and DHT-repressed (ZFP36L1) transcripts” value in the series on androgen-receptor is “inhibited the DHT-induced increase of KLK3 and FKBP5 and prevented the repression of ZFP36L1”. The antischistosomal activity result in the series with S. mansoni [7] (Keiser et al., 2010) was “very weak”.
